Experiments:
[1] = Effect on androgen sensitive organs in testosterone propionate stimulated castrated male Sprague-Dawley rat assessed as seminal vesicles weight loss at 20 mg/kg, po administered once daily for 10 days and measured 24 hrs post last dose; format: functional; settings: time 11 day
[2] = Effect on androgen sensitive organs in testosterone propionate stimulated castrated male Sprague-Dawley rat assessed as ventral prostate weight loss at 20 mg/kg, po administered once daily for 10 days and measured 24 hrs post last dose; format: functional; settings: time 11 day
[3] = Antitumor activity against human LNCaP/AR cells xenografted in SCID male mouse assessed as tumor growth inhibition at 10 mg/kg, po administered once daily for 28 days and measured every 3 days; format: functional; settings: time 28 day
[4] = biological target: GABA-A receptor; anion channel; assay: Antagonist activity at GABA-A (unknown origin); format: toxicity, Homo sapiens
LNCaP = assay: Antiproliferative activity against human LNCaP cells incubated for 6 days by CellTiter-Glo assay; format: functional, cell-based
[5] = biological target: Voltage-gated inwardly rectifying potassium channel KCNH2 (Homo sapiens, UniProt Q12809); assay: Inhibition of human ERG by patch clamp assay; format: toxicity
Chain of Voltage-gated inwardly rectifying potassium channel KCNH2 (Q12809 whole entry): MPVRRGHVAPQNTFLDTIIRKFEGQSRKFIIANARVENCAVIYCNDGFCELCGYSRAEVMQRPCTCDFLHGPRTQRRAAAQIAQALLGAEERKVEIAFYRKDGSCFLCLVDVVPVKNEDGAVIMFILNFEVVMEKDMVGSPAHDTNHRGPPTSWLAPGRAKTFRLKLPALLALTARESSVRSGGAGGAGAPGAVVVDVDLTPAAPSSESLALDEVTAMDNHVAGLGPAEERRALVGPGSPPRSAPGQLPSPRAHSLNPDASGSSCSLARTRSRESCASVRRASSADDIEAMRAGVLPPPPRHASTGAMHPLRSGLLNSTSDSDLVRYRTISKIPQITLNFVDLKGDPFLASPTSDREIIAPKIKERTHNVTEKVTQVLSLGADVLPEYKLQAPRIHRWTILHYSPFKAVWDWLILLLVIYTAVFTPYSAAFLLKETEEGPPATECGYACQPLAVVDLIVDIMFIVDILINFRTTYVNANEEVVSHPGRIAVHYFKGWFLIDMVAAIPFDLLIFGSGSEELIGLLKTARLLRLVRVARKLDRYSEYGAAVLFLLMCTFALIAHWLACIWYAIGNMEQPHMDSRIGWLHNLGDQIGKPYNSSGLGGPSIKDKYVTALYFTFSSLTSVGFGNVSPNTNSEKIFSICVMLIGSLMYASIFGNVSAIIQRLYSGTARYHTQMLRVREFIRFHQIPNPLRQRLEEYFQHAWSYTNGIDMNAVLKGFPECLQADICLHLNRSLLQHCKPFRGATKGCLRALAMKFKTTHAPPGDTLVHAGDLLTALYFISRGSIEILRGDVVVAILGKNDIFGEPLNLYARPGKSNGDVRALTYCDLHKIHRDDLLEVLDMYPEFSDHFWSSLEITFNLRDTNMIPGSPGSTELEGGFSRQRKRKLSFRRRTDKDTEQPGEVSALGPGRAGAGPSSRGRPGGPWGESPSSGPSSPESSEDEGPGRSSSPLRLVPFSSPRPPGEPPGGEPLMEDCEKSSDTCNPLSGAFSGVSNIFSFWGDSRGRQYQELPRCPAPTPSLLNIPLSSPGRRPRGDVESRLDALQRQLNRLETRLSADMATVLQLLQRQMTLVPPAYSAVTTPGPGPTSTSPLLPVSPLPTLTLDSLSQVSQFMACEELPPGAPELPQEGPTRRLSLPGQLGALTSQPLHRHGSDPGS

Androgen receptor = biological target: T1, Androgen receptor (Homo sapiens, UniProt P10275); assay: Induction of androgen receptor degradation in human LNCaP cells incubated for 24 hrs by ELISA; format: cell-based
T1 sequence (P10275 whole entry): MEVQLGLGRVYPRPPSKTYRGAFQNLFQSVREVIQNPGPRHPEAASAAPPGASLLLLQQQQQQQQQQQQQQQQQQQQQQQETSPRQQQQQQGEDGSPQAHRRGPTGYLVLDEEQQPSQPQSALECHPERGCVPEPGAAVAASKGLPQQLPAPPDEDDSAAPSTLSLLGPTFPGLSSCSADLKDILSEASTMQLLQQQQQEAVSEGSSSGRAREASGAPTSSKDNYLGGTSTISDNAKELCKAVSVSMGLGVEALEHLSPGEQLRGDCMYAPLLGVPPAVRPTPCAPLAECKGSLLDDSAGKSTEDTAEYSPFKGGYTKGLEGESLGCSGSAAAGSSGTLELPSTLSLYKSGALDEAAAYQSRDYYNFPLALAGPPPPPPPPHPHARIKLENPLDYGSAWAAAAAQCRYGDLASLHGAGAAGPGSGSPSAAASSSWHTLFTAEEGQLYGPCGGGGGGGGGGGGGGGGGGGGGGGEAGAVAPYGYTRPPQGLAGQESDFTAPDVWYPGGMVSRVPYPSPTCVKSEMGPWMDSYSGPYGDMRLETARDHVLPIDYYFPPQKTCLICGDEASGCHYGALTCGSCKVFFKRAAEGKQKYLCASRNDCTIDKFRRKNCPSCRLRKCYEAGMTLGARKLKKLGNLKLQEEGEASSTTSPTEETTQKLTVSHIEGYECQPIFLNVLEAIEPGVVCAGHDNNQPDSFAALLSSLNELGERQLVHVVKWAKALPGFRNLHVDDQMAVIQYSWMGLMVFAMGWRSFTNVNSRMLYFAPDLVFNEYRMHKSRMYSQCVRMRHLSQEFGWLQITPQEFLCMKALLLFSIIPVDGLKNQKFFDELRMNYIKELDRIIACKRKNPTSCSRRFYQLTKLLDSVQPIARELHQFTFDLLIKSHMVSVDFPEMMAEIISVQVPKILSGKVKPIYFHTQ

[6] = biological target: T2, Steroid 17-alpha-hydroxylase/17,20 lyase (Homo sapiens, UniProt P05093); assay: Inhibition of recombinant human CYP17A1 using progesterone as substrate incubated for 5 mins in presence of NADPH by LC-MS/MS analysis; format: ADME
T2 sequence (P05093 whole entry): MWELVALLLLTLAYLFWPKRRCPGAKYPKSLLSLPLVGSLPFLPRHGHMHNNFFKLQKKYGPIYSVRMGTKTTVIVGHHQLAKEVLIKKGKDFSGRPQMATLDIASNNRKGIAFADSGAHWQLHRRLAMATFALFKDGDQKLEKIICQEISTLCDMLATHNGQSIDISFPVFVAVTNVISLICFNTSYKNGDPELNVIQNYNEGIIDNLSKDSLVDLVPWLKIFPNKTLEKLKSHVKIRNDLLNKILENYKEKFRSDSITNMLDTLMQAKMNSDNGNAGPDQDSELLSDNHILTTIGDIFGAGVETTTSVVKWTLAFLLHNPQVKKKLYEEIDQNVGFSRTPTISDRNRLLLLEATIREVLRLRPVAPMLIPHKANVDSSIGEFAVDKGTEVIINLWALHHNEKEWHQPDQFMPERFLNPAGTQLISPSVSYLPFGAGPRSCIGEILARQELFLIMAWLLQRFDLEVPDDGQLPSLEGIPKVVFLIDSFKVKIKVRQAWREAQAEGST

[7] = Half life in Sprague-Dawley rat at 10 mg/kg, po measured upto 24 hrs by LC-MS/MS analysis; format: ADME, organism-based; settings: in vivo
[8] = Tmax in Sprague-Dawley rat at 10 mg/kg, po measured upto 24 hrs by LC-MS/MS analysis; format: ADME, organism-based; settings: in vivo
[9] = Cmax in Sprague-Dawley rat at 10 mg/kg, po measured upto 24 hrs by LC-MS/MS analysis; format: ADME, organism-based; design: dose 10 mg/kg, time < 24 hrs, route po; settings: in vivo
[10] = AUC(0 to t) in Sprague-Dawley rat at 10 mg/kg, po measured upto 24 hrs by LC-MS/MS analysis; format: ADME, organism-based; settings: in vivo
[11] = Toxicity in SCID male mouse xenografted with human LNCaP/AR cells assessed as tolerability at 10 to 30 mg/kg, po administered once daily for 28 days and measured every 3 days; format: organism-based; settings: in vivo, 672 h, dose 10-30 mg/kg, time 28 day
[12] = Toxicity in SCID male mouse xenografted with human LNCaP/AR cells assessed as animal weight loss at 10 to 30 mg/kg, po administered once daily for 28 days and measured every 3 days; format: organism-based; settings: in vivo, 672 h, dose 10-30 mg/kg, time 28 day
[13] = Toxicity in BALB/c mouse xenografted with enzalutamide resistant human LNCaP C4-2B cells assessed as body weight loss at 10 to 30 mg/kg, po administered once daily for 28 days and measured every 3 days; format: organism-based; settings: in vivo, 672 h, dose 10-30 mg/kg, time 28 day
Progesterone receptor = Progesterone receptor (Homo sapiens, UniProt P06401); assay: Antagonist activity at PR (unknown origin)
Glucocorticoid receptor = Glucocorticoid receptor (Homo sapiens, UniProt P04150); assay: Antagonist activity at GR (unknown origin)
Chain of Glucocorticoid receptor (P04150 whole entry): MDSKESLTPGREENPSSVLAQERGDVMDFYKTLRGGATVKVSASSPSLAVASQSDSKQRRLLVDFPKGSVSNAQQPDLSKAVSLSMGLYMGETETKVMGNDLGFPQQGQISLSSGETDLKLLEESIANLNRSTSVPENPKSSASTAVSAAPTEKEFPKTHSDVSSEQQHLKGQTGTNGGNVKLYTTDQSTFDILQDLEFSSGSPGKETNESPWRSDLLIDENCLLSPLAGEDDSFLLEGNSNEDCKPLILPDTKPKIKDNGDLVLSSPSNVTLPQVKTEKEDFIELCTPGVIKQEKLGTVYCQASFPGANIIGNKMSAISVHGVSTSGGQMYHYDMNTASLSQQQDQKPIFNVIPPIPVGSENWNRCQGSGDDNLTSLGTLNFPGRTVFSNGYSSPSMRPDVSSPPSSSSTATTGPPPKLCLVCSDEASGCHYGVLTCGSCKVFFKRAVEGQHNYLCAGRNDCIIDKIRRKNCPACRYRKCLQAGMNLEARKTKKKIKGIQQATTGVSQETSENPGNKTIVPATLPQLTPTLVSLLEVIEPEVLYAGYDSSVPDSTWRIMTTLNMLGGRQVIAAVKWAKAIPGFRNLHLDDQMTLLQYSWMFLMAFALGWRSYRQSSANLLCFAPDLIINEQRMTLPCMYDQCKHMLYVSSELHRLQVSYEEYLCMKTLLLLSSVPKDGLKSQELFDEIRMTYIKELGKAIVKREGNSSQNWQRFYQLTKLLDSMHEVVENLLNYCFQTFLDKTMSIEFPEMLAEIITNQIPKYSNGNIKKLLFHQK

Estrogen receptor = Estrogen receptor (Homo sapiens, UniProt P03372); assay: Antagonist activity at ERalpha (unknown origin)
Chain of Estrogen receptor (P03372 whole entry): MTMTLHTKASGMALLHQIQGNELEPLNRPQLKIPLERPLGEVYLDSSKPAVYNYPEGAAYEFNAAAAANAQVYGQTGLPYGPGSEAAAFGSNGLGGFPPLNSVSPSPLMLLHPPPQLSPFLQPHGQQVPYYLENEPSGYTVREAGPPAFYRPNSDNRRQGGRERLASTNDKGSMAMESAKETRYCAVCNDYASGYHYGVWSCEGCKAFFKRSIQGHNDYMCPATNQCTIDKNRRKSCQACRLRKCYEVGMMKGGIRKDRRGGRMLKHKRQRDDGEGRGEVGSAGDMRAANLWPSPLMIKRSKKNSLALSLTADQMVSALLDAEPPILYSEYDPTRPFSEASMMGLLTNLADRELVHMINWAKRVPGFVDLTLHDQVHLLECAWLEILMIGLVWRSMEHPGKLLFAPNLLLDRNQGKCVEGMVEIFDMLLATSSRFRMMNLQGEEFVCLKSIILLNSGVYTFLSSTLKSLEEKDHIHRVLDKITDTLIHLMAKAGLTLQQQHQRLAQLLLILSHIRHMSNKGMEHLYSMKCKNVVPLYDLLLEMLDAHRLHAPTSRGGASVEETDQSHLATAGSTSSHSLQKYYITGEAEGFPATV

Cytochrome P450 1A2 = Cytochrome P450 1A2 (Homo sapiens, UniProt P05177); assay: Inhibition of CYP1A2 (unknown origin); format: ADME
Chain of Cytochrome P450 1A2 (P05177 whole entry): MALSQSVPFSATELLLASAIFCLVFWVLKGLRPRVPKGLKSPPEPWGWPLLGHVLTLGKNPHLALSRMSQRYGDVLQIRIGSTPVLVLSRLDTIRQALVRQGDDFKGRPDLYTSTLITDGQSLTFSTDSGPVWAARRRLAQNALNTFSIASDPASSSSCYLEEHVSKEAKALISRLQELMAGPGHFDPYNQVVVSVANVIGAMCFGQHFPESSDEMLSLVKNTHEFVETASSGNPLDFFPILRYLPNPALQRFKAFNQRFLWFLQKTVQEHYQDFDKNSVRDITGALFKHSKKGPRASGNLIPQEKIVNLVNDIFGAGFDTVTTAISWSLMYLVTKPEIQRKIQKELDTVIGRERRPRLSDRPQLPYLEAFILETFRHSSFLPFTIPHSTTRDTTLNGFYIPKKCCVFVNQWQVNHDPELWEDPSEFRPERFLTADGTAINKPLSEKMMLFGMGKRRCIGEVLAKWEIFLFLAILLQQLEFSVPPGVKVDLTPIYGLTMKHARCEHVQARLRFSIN

Cytochrome P450 2C19 = Cytochrome P450 2C19 (Homo sapiens, UniProt P33261); assay: Inhibition of CYP2C19 (unknown origin); format: ADME
Chain of Cytochrome P450 2C19 (P33261 whole entry): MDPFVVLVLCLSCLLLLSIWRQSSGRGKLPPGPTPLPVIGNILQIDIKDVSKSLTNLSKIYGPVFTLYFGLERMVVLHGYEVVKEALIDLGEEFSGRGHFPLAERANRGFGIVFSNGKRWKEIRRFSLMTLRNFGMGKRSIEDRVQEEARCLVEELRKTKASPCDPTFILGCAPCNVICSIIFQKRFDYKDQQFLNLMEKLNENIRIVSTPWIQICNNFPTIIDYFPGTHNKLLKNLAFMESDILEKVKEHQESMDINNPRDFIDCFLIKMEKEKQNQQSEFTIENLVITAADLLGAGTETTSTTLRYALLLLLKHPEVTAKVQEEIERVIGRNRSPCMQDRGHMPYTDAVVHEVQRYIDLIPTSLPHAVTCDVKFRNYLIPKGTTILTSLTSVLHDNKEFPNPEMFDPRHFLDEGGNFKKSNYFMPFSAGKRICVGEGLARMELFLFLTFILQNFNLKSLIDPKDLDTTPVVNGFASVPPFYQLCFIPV

Cytochrome P450 2C9 = Cytochrome P450 2C9 (Homo sapiens, UniProt P11712); assay: Inhibition of CYP2C9 (unknown origin); format: ADME
Chain of Cytochrome P450 2C9 (P11712 whole entry): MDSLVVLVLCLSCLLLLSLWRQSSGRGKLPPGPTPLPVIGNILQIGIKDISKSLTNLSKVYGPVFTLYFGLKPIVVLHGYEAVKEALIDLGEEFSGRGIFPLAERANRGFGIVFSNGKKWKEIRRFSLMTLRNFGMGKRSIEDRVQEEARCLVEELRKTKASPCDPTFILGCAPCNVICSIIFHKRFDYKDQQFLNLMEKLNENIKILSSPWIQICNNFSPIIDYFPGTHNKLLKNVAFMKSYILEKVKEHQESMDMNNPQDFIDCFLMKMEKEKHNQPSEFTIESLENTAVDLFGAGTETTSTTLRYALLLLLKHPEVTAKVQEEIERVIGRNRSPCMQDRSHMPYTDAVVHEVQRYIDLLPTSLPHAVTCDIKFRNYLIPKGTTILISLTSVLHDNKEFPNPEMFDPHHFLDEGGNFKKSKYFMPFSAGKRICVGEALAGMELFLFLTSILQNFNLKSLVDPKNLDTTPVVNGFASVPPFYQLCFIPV

Cytochrome P450 2D6 = Cytochrome P450 2D6 (Homo sapiens, UniProt P10635); assay: Inhibition of CYP2D6 (unknown origin); format: ADME
Chain of Cytochrome P450 2D6 (P10635 whole entry): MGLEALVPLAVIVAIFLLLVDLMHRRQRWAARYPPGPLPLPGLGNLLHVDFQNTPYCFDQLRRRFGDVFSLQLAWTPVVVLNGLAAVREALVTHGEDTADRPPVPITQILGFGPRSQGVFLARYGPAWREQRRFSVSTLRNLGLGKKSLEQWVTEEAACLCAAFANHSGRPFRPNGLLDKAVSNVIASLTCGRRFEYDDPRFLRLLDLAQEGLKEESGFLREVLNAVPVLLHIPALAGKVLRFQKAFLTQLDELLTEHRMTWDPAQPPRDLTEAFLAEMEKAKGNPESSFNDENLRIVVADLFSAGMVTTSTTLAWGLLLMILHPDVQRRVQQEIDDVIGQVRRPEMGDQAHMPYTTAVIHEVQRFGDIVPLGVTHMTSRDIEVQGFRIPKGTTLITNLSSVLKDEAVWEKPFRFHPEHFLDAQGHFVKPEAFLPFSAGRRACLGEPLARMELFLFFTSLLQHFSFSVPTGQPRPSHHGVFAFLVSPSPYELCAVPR

Cytochrome P450 3A4 [14] = biological target: T3, Cytochrome P450 3A4 (Homo sapiens, UniProt P08684); assay: Inhibition of CYP3A4 (unknown origin) using midazolam substrate; format: ADME
T3 sequence (P08684 whole entry): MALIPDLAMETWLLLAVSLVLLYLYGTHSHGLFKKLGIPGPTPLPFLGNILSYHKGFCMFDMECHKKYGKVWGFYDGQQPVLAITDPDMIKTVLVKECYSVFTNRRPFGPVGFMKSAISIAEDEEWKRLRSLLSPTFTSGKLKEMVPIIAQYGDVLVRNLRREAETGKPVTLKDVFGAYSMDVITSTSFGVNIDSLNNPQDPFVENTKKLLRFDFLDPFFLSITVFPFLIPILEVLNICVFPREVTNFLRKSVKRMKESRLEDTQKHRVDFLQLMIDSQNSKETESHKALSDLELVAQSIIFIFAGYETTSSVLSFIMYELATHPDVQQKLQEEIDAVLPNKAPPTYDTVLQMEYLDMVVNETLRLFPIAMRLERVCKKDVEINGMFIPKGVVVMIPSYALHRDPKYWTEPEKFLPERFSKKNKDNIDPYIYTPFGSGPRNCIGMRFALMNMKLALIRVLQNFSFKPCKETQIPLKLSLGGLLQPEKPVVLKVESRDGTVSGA

Cytochrome P450 3A4 [15] = biological target: T3, Cytochrome P450 3A4; assay: Inhibition of CYP3A4 (unknown origin) using testosterone as substrate; format: ADME
[16] = tested on: GABA-A receptor; anion channel; assay: Antagonist activity at GABA-A (unknown origin) at 40 uM relative to control; format: toxicity; settings: human
[17] = Mutagenicity in Salmonella typhimurium TA98 in presence of liver S9 fraction by AMES test; format: toxicity, subcellular; settings: salmonella enterica subsp. enterica serovar typhimurium
[18] = Mutagenicity in Salmonella typhimurium TA100 in presence of liver S9 fraction by AMES test; format: toxicity, subcellular; settings: salmonella enterica subsp. enterica serovar typhimurium
[19] = Mutagenicity in Salmonella typhimurium TA1535 in presence of liver S9 fraction by AMES test; format: toxicity, subcellular; settings: salmonella enterica subsp. enterica serovar typhimurium
[20] = Mutagenicity in Salmonella typhimurium TA1537 in presence of liver S9 fraction by AMES test; format: toxicity, subcellular; settings: salmonella enterica subsp. enterica serovar typhimurium
[21] = Mutagenicity in Escherichia coli WP2 uvrA in presence of liver S9 fraction by AMES test; format: toxicity, subcellular
[22] = Mutagenicity in Salmonella typhimurium TA98 in absence of liver S9 fraction by AMES test; format: toxicity; settings: salmonella enterica subsp. enterica serovar typhimurium
[23] = Mutagenicity in Salmonella typhimurium TA100 in absence of liver S9 fraction by AMES test; format: toxicity; settings: salmonella enterica subsp. enterica serovar typhimurium
[24] = Mutagenicity in Salmonella typhimurium TA1535 in absence of liver S9 fraction by AMES test; format: toxicity; settings: salmonella enterica subsp. enterica serovar typhimurium
[25] = Mutagenicity in Salmonella typhimurium TA1537 in absence of liver S9 fraction by AMES test; format: toxicity; settings: salmonella enterica subsp. enterica serovar typhimurium
[26] = Mutagenicity in Escherichia coli WP2 uvrA in absence of liver S9 fraction by AMES test; format: toxicity
[27] = Genotoxicity in CHL cells in absence of rat liver S9 fraction by micronucleus test; format: toxicity, cell-based, Cricetulus griseus; settings: chinese hamster
[28] = Genotoxicity in CHL cells in presence of rat liver S9 fraction by micronucleus test; format: toxicity, Cricetulus griseus; settings: chinese hamster

Work on `CNC(=O)c1ccc(N2C(=S)N(c3ccc(C#N)c(C(F)(F)F)c3)C(=O)C2(C)C)cc1F` [ENZALUTAMIDE] yielded an Activity [1] of -67%, an Activity [2] of -67% and a TGI [3] of 64%. The IC50 [4] was 4.8 µM.
Molecule `Cc1cn(C2=CCC3C4CC=C5C[C@@H](NC(=O)c6ccc(F)cc6)CC[C@]5(C)C4CC[C@]23C)cn1` (stereo not given in full) has an IC50 (LNCaP) of 0.473 µM, an IC50 [5] of over 40 µM and an EC50 (Androgen receptor) of 1.28 µM. For the same molecule, the IC50 [6] was 0.1 µM, the half-life [7] was 3.28 h and the Tmax [8] was 4 h. For the same molecule, the Cmax [9] was 6430 ng/mL, the AUCt [10] was 68872 h/ng/mL and the Activity [1] was -64%. The Activity [2] was -65%, the inhibition in vivo at 10 mg/kg ([3]; Homo sapiens, LNCaP/AR, 672 h, read-out: TGI) was 56% and the Activity [11] was “Non-Toxic”. The Activity [12] was “Non-Toxic”, the Activity [13] was “Non-Toxic” and the IC50 (Progesterone receptor) was over 30 µM. The IC50 (Glucocorticoid receptor) was over 30 µM, the IC50 (Estrogen receptor) was 0.103 µM and the IC50 (Cytochrome P450 1A2) was 25 µM. It also gave an IC50 (Cytochrome P450 2C19) of 4.1 µM, an IC50 (Cytochrome P450 2C9) of 30.8 µM and an IC50 (Cytochrome P450 2D6) of 50 µM. The IC50 (Cytochrome P450 3A4 [14]) was 1.25 µM, the IC50 (Cytochrome P450 3A4 [15]) was 0.81 µM and the “inhibition (INH)” value [16] was “Not Active”. For the same molecule, the Activity [17] was “Non-Toxic”, the Activity [18] was “Non-Toxic” and the Activity [19] was “Non-Toxic”. For the same molecule, the Activity [20] was “Non-Toxic”, the Activity [21] was “Non-Toxic” and the Activity [22] was “Non-Toxic”. For the same molecule, the Activity [23] was “Non-Toxic”, the Activity [24] was “Non-Toxic” and the Activity [25] was “Non-Toxic”. The Activity [26] was “Non-Toxic”, the Activity [27] was “Non-Toxic” and the Activity [28] was “Non-Toxic”.
